Laboratory results reported in US20230365533A1, “BICYCLOHEPTANE PYRROLIDINE OREXIN RECEPTOR AGONISTS” (MERCK SHARP & DOHME CORP., priority 2021, published 2023).

Each compound was assayed against T1, human OX2R (Homo sapiens, UniProt O43614) (assay: IPOne (IP-1) orexin receptor agonist assay in CHO cells expressing human OX2R). Details: IPOne assay, CHO cells expressing human OX2R, 2 hours incubation; read-out: hoX2R_IP IC50.
T1 construct: expressed in transfected cells; host or cells: CHO (Chinese hamster ovary) cells, grown under G418 selection
T1 sequence (O43614 1-444): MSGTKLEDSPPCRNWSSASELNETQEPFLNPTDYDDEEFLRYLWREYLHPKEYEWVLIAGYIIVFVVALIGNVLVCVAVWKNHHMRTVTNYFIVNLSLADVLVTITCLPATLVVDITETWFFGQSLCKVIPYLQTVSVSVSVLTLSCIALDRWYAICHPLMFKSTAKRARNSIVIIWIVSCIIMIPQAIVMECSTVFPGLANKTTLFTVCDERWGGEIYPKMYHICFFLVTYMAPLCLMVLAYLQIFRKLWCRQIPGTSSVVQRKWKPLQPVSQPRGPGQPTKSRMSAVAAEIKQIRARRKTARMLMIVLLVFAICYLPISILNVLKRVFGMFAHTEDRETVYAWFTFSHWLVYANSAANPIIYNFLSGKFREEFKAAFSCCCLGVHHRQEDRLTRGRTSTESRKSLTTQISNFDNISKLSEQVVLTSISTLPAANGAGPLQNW
Type: cell-based
Summary of the method: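 CHO cells with human OX2R treated 2 h at 37 °C with 10-point ½-log compound dilutions in stimulation buffer; IP-1 accumulation read by HTRF (665/620 nm) after 60 min detection. EC50 from four-parameter fit; % effect versus a 1 uM reference agonist.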
`CCC(C)S(=O)(=O)N[C@H]1C[C@@H](C)N(C(=O)OC)[C@H]1CO[C@H]1CC[C@@]2(c3ncc(F)cn3)C[C@H]2C1` (stereo partly drawn) [Example 41, methyl (2R,3S,5R)-2-((((1S,3S,6R)-6-(5-fluoropyrimidin-2-yl)bicyclo[4.1.0]heptan-3-yl)oxy)methyl)-5-methyl-3-((1-methylpropyl)sulfonamido)pyrrolidine-1-carboxylate] showed an IC50 of 8 nM.
`CC(C)OC(=O)N1[C@H](C)C[C@H](NS(=O)(=O)N(C)C)[C@@H]1COC1CCC2(c3ncc(F)cn3)CC2C1` (stereo partly drawn) [Example 164, isopropyl (2R,3S,5R)-3-((N,N-dimethylsulfamoyl)amino)-2-(((6-(5-fluoropyrimidin-2-yl)bicyclo[4.1.0]heptan-3-yl)oxy)methyl)-5-methylpyrrolidine-1-carboxylate] was tested, and the IC50 was 2.6 nM.
Compound `COC(=O)N1[C@H](C)C[C@H](NS(=O)(=O)Cc2ccccc2)[C@@H]1CO[C@@H]1CC[C@]2(c3ncc(F)cn3)C[C@@H]2C1` [Example 45, methyl (2R,3S,5R)-2-((((1R,3R,6S)-6-(5-fluoropyrimidin-2-yl)bicyclo[4.1.0]heptan-3-yl)oxy)methyl)-5-methyl-3-((phenylmethyl)sulfonamido)pyrrolidine-1-carboxylate] has an IC50 of 173 nM.
For `CC(C)OC(=O)N1CCC[C@H](NS(=O)(=O)C(F)F)[C@@H]1CO[C@H]1CC[C@@]2(c3ncc(F)cn3)C[C@H]2C1` [Example 121, isopropyl (2R,3S)-3-((difluoromethyl)sulfonamido)-2-((((1S,3S,6R)-6-(5-fluoropyrimidin-2-yl)bicyclo[4.1.0]heptan-3-yl)oxy)methyl)piperidine-1-carboxylate], the IC50 was 0.86 nM.
`CCCS(=O)(=O)N[C@H]1C[C@@H](C)N(C(=O)OC)[C@H]1CO[C@H]1CC[C@@]2(c3ncc(F)cn3)C[C@H]2C1` [Example 33, methyl (2R,3S,5R)-2-((((1S,3S,6R)-6-(5-fluoropyrimidin-2-yl)bicyclo[4.1.0]heptan-3-yl)oxy)methyl)-5-methyl-3-(propylsulfonamido)pyrrolidine-1-carboxylate] showed an IC50 of 5.4 nM.
In the case of `COC(=O)N1[C@H](C)C[C@H](NS(=O)(=O)N(C)C)[C@@H]1COC1CCC2(c3cnccn3)CC2C1` (single isomer, unassigned) [Example 11], the IC50 is reported as 146 nM.
`CC(F)COC(=O)N1[C@H](C)C[C@H](NS(C)(=O)=O)[C@@H]1CO[C@H]1CC[C@@]2(c3ncc(F)cn3)C[C@H]2C1` (stereo partly drawn) [Example 58, 2-fluoropropyl (2R,3S,5R)-2-((((1S,3S,6R)-6-(5-fluoropyrimidin-2-yl)bicyclo[4.1.0]heptan-3-yl)oxy)methyl)-5-methyl-3-(methylsulfonamido)pyrrolidine-1-carboxylate] gave an IC50 of 2 nM.
Compound `COC(=O)N1[C@H](C)C[C@H](NS(C)(=O)=O)[C@@H]1COC1CCC2(c3ncc(F)c(C)n3)CC2C1` (stereo partly drawn) [Example 77, methyl (2R,3S,5R)-2-(((6-(5-fluoro-4-methylpyrimidin-2-yl)bicyclo[4.1.0]heptan-3-yl)oxy)methyl)-5-methyl-3-(methylsulfonamido)pyrrolidine-1-carboxylate] has an IC50 of 736 nM.
`COC(=O)N1[C@H](C)C[C@H](NS(=O)(=O)N2CCC2)[C@@H]1CO[C@@H]1CC[C@]2(c3ncc(F)cn3)C[C@@H]2C1` [Example 43, methyl (2R,3S,5R)-3-(azetidine-1-sulfonamido)-2-((((1R,3R,6S)-6-(5-fluoropyrimidin-2-yl)bicyclo[4.1.0]heptan-3-yl)oxy)methyl)-5-methylpyrrolidine-1-carboxylate] was tested, and the IC50 was 49.3 nM.
Compound `COC(=O)N1[C@H](C)C[C@H](NS(C)(=O)=O)[C@@H]1COC1CCC2(c3ncc(F)c(C(F)F)n3)CC2C1` (stereo partly drawn) [Example 73, methyl (2R,3S,5R)-2-(((6-(4-(difluoromethyl)-5-fluoropyrimidin-2-yl)bicyclo[4.1.0]heptan-3-yl)oxy)methyl)-5-methyl-3-(methylsulfonamido)pyrrolidine-1-carboxylate] has an IC50 of 220 nM.
`COC(=O)N1[C@H](C)C[C@H](NS(=O)(=O)CF)[C@@H]1COC1CCC2(c3ncc(Cl)cn3)CC2C1` (stereo partly drawn) [Example 94, methyl (2R,3S,5R)-2-(((6-(5-chloropyrimidin-2-yl)bicyclo[4.1.0]heptan-3-yl)oxy)methyl)-3-((fluoromethyl)sulfonamido)-5-methylpyrrolidine-1-carboxylate] was tested, and the IC50 was 1.7 nM.
Work on `C[C@@H]1C[C@H](NS(C)(=O)=O)[C@H](CO[C@H]2CC[C@@]3(c4ncc(F)cn4)C[C@H]3C2)N1C(=O)OCCC(F)F` [Example 52, 3,3-difluoropropyl (2R,3S,5R)-2-((((1S,3S,6R)-6-(5-fluoropyrimidin-2-yl)bicyclo[4.1.0]heptan-3-yl)oxy)methyl)-5-methyl-3-(methylsulfonamido)pyrrolidine-1-carboxylate] yielded an IC50 of 1.4 nM.
`COC(=O)N1[C@H](C)C[C@H](NS(=O)(=O)C(F)F)[C@@H]1CO[C@H]1CC[C@@]2(c3ncc(Cl)cn3)C[C@H]2C1` (single isomer, unassigned) [Example 78] was tested, and the IC50 was 1.2 nM.
For `CC(C)OC(=O)N1[C@H](C)C[C@H](NS(C)(=O)=O)[C@@H]1COC1CCC2(c3ncc(Cl)cn3)CC2C1` (stereo partly drawn) [Example 154, isopropyl (2R,3S,5R)-2-(((6-(5-chloropyrimidin-2-yl)bicyclo[4.1.0]heptan-3-yl)oxy)methyl)-5-methyl-3-(methylsulfonamido)pyrrolidine-1-carboxylate], the IC50 was 16.9 nM.
`CC(C)OC(=O)N1[C@H](C(F)F)C[C@H](NS(C)(=O)=O)[C@@H]1CO[C@H]1CC[C@@]2(c3ncc(F)cn3)C[C@H]2C1` [Example 119, isopropyl (2R,3S,5S)-5-(difluoromethyl)-2-((((1S,3S,6R)-6-(5-fluoropyrimidin-2-yl)bicyclo[4.1.0]heptan-3-yl)oxy)methyl)-3-(methylsulfonamido)pyrrolidine-1-carboxylate] gave an IC50 of 1.4 nM.
Compound `COC(=O)N1[C@H](C)C[C@H](NS(C)(=O)=O)[C@@H]1COC1CCC2(c3nccs3)CC2C1` (stereo partly drawn) [Example 149, methyl (2R,3S,5R)-5-methyl-3-(methylsulfonamido)-2-(((6-(thiazol-2-yl)bicyclo[4.1.0]heptan-3-yl)oxy)methyl)pyrrolidine-1-carboxylate] has an IC50 of 179 nM.
Compound `COC(=O)N1[C@H](C)C[C@H](NS(=O)(=O)CF)[C@@H]1COC1CCC2(c3ncc(Cl)c(OC)n3)CC2C1` (stereo partly drawn) [Example 86, methyl (2R,3S,5R)-2-(((6-(5-chloro-4-methoxypyrimidin-2-yl)bicyclo[4.1.0]heptan-3-yl)oxy)methyl)-3-((fluoromethyl)sulfonamido)-5-methylpyrrolidine-1-carboxylate] has an IC50 of 9.9 nM.
Work on `COC(=O)N1[C@H](C)C[C@H](NS(=O)(=O)CC(C)C)[C@@H]1CO[C@H]1CC[C@@]2(c3ncc(F)cn3)C[C@H]2C1` [Example 35, methyl (2R,3S,5R)-2-((((1S,3S,6R)-6-(5-fluoropyrimidin-2-yl)bicyclo[4.1.0]heptan-3-yl)oxy)methyl)-5-methyl-3-((2-methylpropyl)sulfonamido)pyrrolidine-1-carboxylate] yielded an IC50 of 46.5 nM.
`COC(=O)N1[C@H](C)C[C@H](NS(=O)(=O)N(C)C)[C@@H]1COC1CCC2(c3cc(F)cc(F)c3)CC2C1` (stereo partly drawn) [Example 4, methyl (2R,3S,5R)-2-(((6-(3,5-difluorophenyl)bicyclo[4.1.0]heptan-3-yl)oxy)methyl)-3-((N,N-dimethylsulfamoyl)amino)-5-methylpyrrolidine-1-carboxylate] was tested, and the IC50 was 604 nM.
Work on `COC(=O)N1[C@H](C)C[C@H](NS(C)(=O)=O)[C@@H]1COC1CCC2(c3ncc(Cl)c(C(F)(F)F)n3)CC2C1` (stereo partly drawn) [Example 72, methyl (2R,3S,5R)-2-(((6-(5-chloro-4-(trifluoromethyl)pyrimidin-2-yl)bicyclo[4.1.0]heptan-3-yl)oxy)methyl)-5-methyl-3-(methylsulfonamido)pyrrolidine-1-carboxylate] yielded an IC50 of 187 nM.
With `COC(=O)N1[C@H](C)C[C@H](NS(C)(=O)=O)[C@@H]1CO[C@@H]1CC[C@]2(c3ncc(Cl)cn3)C[C@@H]2C1` (single isomer, unassigned) [Example 141] the IC50 was 86.4 nM.
With `C[C@@H]1C[C@H](NS(C)(=O)=O)[C@H](CO[C@H]2CC[C@@]3(c4ncc(F)cn4)C[C@H]3C2)N1C(=O)OCC1(F)CC1` [Example 61, (1-fluorocyclopropyl)methyl (2R,3S,5R)-2-((((1S,3S,6R)-6-(5-fluoropyrimidin-2-yl)bicyclo[4.1.0]heptan-3-yl)oxy)methyl)-5-methyl-3-(methylsulfonamido)pyrrolidine-1-carboxylate] the IC50 was 2.3 nM.
Work on `COC(=O)N1[C@H](C)C[C@H](NS(=O)(=O)C(C)C)[C@@H]1CO[C@@H]1CC[C@]2(c3ncc(F)cn3)C[C@@H]2C1` [Example 46, methyl (2R,3S,5R)-2-((((1R,3R,6S)-6-(5-fluoropyrimidin-2-yl)bicyclo[4.1.0]heptan-3-yl)oxy)methyl)-5-methyl-3-((1-methylethyl)sulfonamido)pyrrolidine-1-carboxylate] yielded an IC50 of 13.4 nM.
`COC(=O)N1CC[C@H](NS(C)(=O)=O)[C@@H]1COC1CCC2(c3ncccn3)CC2C1` (stereo partly drawn) [Example 185, methyl (2R,3S)-3-(methylsulfonamido)-2-(((6-(pyrimidin-2-yl)bicyclo[4.1.0]heptan-3-yl)oxy)methyl)pyrrolidine-1-carboxylate] gave an IC50 of 1620 nM.
